test system: zebrafish; format: in vivo; conditions: average phenoscore at highest scoring treatment

Compound	phenoscore category
C[C@]12CC[C@@H](O)C[C@H]1CC[C@@H]1[C@@H]2CC[C@]2(C)[C@@H](C(=O)CO)CC[C@@H]12 [THDOC, tetrahydrodeoxycorticosterone]	intermediate (intermediate phenoscores (0.51 < x < 0.71))

same assay, conditions: co-treatment; in words

Compound	effect on eASRs caused by HTR6 antagonists
CCc1[nH]c2ccc(OC)cc2c1CCN(C)C.O=C(O)C(=O)O [EMDT oxalate]	did not suppress eASRs

same assay, conditions: dutasteride 3.0 μM + progesterone 2.5 μM

Compound	effect on progesterone's etomidate-like phenotype
C[C@]12C=CC(=O)N[C@@H]1CC[C@@H]1[C@@H]2CC[C@]2(C)[C@@H](C(=O)Nc3cc(C(F)(F)F)ccc3C(F)(F)F)CC[C@@H]12 [dutasteride]	suppressed

same assay, conditions: larvae; low-volume acoustic stimulus

Compound	enhanced acoustic startle response (eASR) phenotype, in words
Oc1noc2c1CCNC2 [THIP, gaboxadol]	did not cause eASRs
O=C(c1ccccn1)c1cnn2c(-c3ccncc3)ccnc12 [ocinaplon]	produced a behavioral profile that resembled the negative
CCN(Cc1ccccc1)C(=O)Cn1c(=O)n(C)c2cnc(-c3ccccc3)nc21 [AC 5216]	caused eASRs in vivo
FC(F)OC(Cl)C(F)(F)F (centres unmarked) [isoflurane]	not all anesthetics caused eASR behaviors
Cc1cccc(C#Cc2ccccc2)n1 [MPEP]	reproducibly caused eASRs
CCC(C)N(C)C(=O)c1cc2ccccc2c(-c2ccccc2Cl)n1 (centres unmarked) [PK 11195]	caused eASRs in vivo
CCOC(=O)c1cccc(N)c1 [tricaine]	not all anesthetics caused eASR behaviors
O=C(Nc1c(-c2cccs2)nc2ccccn12)c1ccc(Cl)cc1 [DS2]	did not cause eASRs
Fc1ccc2c(CCNCc3cccc(OCC(F)(F)C(F)F)c3)c[nH]c2c1 [idalopirdine]	reproducibly caused eASRs in vivo
COc1ccccc1N1CCN(C(=O)COc2ccc(Cl)cc2Br)CC1 [compound 5801496]	did not cause eASRs in vivo

same assay, conditions: zebrafish, in vivo

Compound	Phenoscore	eASR magnitudes in animals treated with M-current ligands	enhanced acoustic startle response (eASR) phenotype, in words
CC1(C)CC(=O)c2c(SCCO)sc(-c3nccs3)c2C1 [TB 21007]	0.12		
CCOC(=O)c1ncn2c1[C@@H]1CCCN1C(=O)c1cc(OC)ccc1-2 [L-655,708]	0.51		
CCCN(CCC)C1CCc2cccc(O)c2C1 (centres unmarked) [8-HYDROXY-DPAT]	0.49		
CC(N)Cc1c[nH]c2ccc(OCc3cccs3)cc12 (centres unmarked) [BW 723C86]	0.1		
CN1CC(=O)NC1=NC(=O)Nc1cccc(Cl)c1 [Fenobam]	0.3		
O=C(Nc1ccc(Cl)c(Cl)c1)c1ccc(Cl)cc1Cl [compound 7136301]	0.42		
CSc1ccc2c(c1)C(N1CCN(C)CC1)Cc1ccccc1S2 (centres unmarked) [METHIOTHEPIN]	0.33		
NCCCC(=O)O [GABA]	0.21		
O=C1c2ccccc2C(Cc2ccncc2)(Cc2ccncc2)c2ccccc21 [XE-991]		significantly increased	
Br.COc1ccc(-c2ccc(=N)n(CCCC(=O)O)n2)cc1 [SR-95531]	0.21		
O=C(O)/C=C\C(=O)O.c1ccc2nc(N3CCNCC3)ccc2c1 [Quipazine maleate salt]	0.16		
CCN(CC)CCOC(=O)c1cc(Cl)c(N)cc1OC [SDZ-205557]	0.07		
CCOC(=O)c1c(C)n(Cc2ccco2)c2ccc(OC)cc12 [compound 5943451]	0.37		
NC/C=C/C(=O)O [TACA]	0.07		
COc1ccc2c(c1)c(CCN(C)C)cn2S(=O)(=O)c1ccccc1.O=C(O)C(=O)O [MS 245 OXALATE]	0.09		
N[C@@H](Cn1ccc(=O)n(Cc2ccccc2C(=O)O)c1=O)C(=O)O [UBP 302]	0.17		
COc1ccccc1N1CCN(C(=O)c2ccc(C(=O)c3c(C)cc(C)cc3C)cc2)CC1 [compound 5352629]	0.48		
Cc1nccn1CC1CCc2c(c3ccccc3n2C)C1=O.Cl (centres unmarked) [Ondansetron Hydrochloride]	0.13		
NCCc1c[nH]c2c(O)cc(O)cc12 [57-DIHYDROXYTRYPTAMINE]	0.05		
CCc1c(C(=O)OC)ncc2[nH]c3cc(OC)c(OC)cc3c12 [DMCM]	0.54		
NC(CCP(=O)(O)O)C(=O)O [L-AP4]	0.1		
O=C(N/N=C/c1ccccc1O)c1ccccc1O [SCS]	0.04		
COc1ccc(S(=O)(=O)Nc2cc(Cl)cc(Cl)c2OC)cc1N1CCNCC1.Cl [SB 399885 hydrochloride]	0.16		

Compound	Phenoscore	eASR magnitudes in animals treated with M-current ligands	enhanced acoustic startle response (eASR) phenotype, in words
Cc1cccc(C#Cc2ccccc2)n1 [MPEP]	0.73		
Cc1c(OCc2cccc(-c3ccc(C(=O)O)cc3)c2)cc2c(c1C)C(=O)C(C1CCCC1)C2 (centres unmarked) [Biphenylindanone A]	0.11		
O=C1CCCN1CC#CCN1CCCC1 [oxotremorine]		significantly increased	
O=C(Nc1cnc(Cl)nc1)c1ccc(F)c(F)c1 [ICA-069673]		significantly decreased	
CNc1cc(NS(=O)(=O)c2ccc(N)cc2)nc(NC)n1 [Ro 04-6790]	0.11		
Cc1cccc([C@H](C)c2cnc[nH]2)c1C [dexmedetomidine]			not all anesthetics caused eASR behaviors
CN(C)CCn1cc(S(=O)(=O)c2cccc(F)c2)c2cccnc21 [WAY 208466]	0.21		
CN1CCc2cc3c(cc2[C@H]1[C@@H]1OC(=O)c2c1ccc1c2OCO1)OCO3 [bicuculline (-)]	0.05		
CN(C)C/C=C(\c1ccc(Br)cc1)c1cccnc1.Cl.Cl.O [Zimelidine dihydrochloride monohydrate]	0.16		
O=C1N(c2ccccc2)c2ccccc2C1(Cc1ccncc1)Cc1ccncc1 [linopirdine]		significantly increased	
COc1ccc(NC(=O)c2ccc(-c3ccc(-c4noc(C)n4)cc3C)cc2)cc1OCCN(C)C [SB-216641]	0.11		
NC[C@H](CC(=O)O)c1ccc(Cl)cc1 [R-Baclofen]	0.26		
CCOC(=O)c1cc2c(cn1)[nH]c1ccccc12 [β-CCE]	0.37		
O=C([O-])[C@H]1CCCC[C@H]1C(=O)Nc1cc(Cl)cc(Cl)c1.[Na+] [VU 0155041 Na Salt]	0.11		
Cc1[nH]c2ccc(Cl)cc2c1CCN(C)C.O=C(O)C(=O)O [ST 1936 OXALATE]	0.09		
CN(C)CCCc1cc(C(=O)Nc2ccc(-c3ccncc3)cc2)ccc1O.Cl.Cl [GR 55562 DIHYDROCHLORIDE]	0.24		
COc1cc(CC(C)N)c(OC)cc1I.Cl (centres unmarked) [DOI HYDROCHLORIDE]	0.1		
COc1cc(Br)c(OC)c2c1[C@H](CN)C2 [TCB-2]	0.1		
Cc1[nH]c2ccc(Cl)cc2c1C1=CCNCC1.Cl [EMD 386088 HYDROCHLORIDE]	0.15		
CN1CCc2cc3c(cc2[C@H]1[C@@H]1OC(=O)c2c1ccc1c2OCO1)OCO3 [bicuculline (+)]	0.23		
CCOC(=O)Nc1ccc(NCc2ccc(F)cc2)nc1N [flupirtine]		significantly decreased	
CC(N)Cc1c[nH]c2ccc(O)cc12 (stereo not drawn) [alpha-METHYLSEROTONIN]	0.18		

test system: human GABAARs (α1β2 and α1β2γ2); format: cell-based; conditions: compound at 20 uM then 5 uM GABA; DMSO = 1
Description: To determine if these compounds targeted human GABAARs, we tested them in a fluorescent imaging plate reader (FLIPR) assay on HEK293 cells transfected with α1β2 and α1β2γ2 human GABAAR subtypes. […]. […] While some of the compounds appeared to function in this assay as negative allosteric modulators (NAMs), reductions in fluorescence were likely due to toxicity-induced cell loss (Fig. 2f, Supplementary Table 5).
We used the FLIPR system (Molecular Devices) to quantify GABA-evoked activity of human GABAARs. We chose a membrane potential dye (Molecular Devices) to measure changes in membrane potentials and stably transfected HEK293 cells that expressed α1, β2 and γ2. Since we observed an increase in GABA-evoked responses when transfected with γ2 transiently, we describe the cells as having a low level of γ-subunit expression, indicating heterogeneity of GABAAR compositions in the cell (α1β2 or α1β2γ2). To assay for direct agonists, fluorescence was subtracted pre- and post compound addition. To assay for PAMs, cells were treated with compound at 20 uM and then with 5 uM GABA.

Compound	Ave Norm FLIPR Score
COC(=O)c1sc(NC(=O)C2CCCO2)c(C(=O)OC)c1C (centres unmarked) [compound 5690842]	12.09
COc1cc(OC)cc(C(=O)Nc2ccc(Cl)cc2C(F)(F)F)c1 [compound 6376886]	32.44
CCOC(=O)c1c(N)sc2ccccc12 [compound 5142031]	5.237
O=C(Nc1c(C(=O)Nc2ccc(Cl)cc2)cnn1-c1ccccc1)c1ccccc1F [compound 5587256]	-26.37
Clc1ccc(CSc2nc3ccccc3[nH]2)cc1 [compound 5551268]	-1.463
Nc1ccc(OC(F)(F)F)cc1C(=O)c1ccccc1 [compound 7113584]	-2.455
CCC(=O)c1c(C)nc2n(Cc3ccccc3)c3ccccc3n12 [compound 5649824]	41.41
CCOC(=O)Nc1sc(C)c(CC)c1C(=O)OCC [compound 5695025]	32.27
CCc1cc2c(=O)c(-c3ccccc3Cl)coc2cc1O [compound 7014338]	-6.27
CC(=O)c1c(C)nc2n(Cc3ccccc3)c3ccccc3n12 [compound 5573728]	27.62
CC(C)CC(=O)NC(S)=NCc1ccccc1 [compound 6993015]	23.93
Cc1cc(C)n2c(SCc3ccc(C(=O)c4ccccc4)cc3)nnc2n1 [compound 7166683]	-1.302
CCCN(CCC)S(=O)(=O)c1ccc(Cl)c(Cl)c1OC [compound 6474599]	52.02
CCCCNc1c(C(=O)OCC)c(C)nc2c1cnn2CC [tracazolate]	50.14

same assay, conditions: compound at 20 uM then 5 uM GABA; Positive/Negative

Compound	FLIPR Results
COC(=O)c1sc(NC(=O)C2CCCO2)c(C(=O)OC)c1C (centres unmarked) [compound 5690842]	Positive
COc1cc(OC)cc(C(=O)Nc2ccc(Cl)cc2C(F)(F)F)c1 [compound 6376886]	Positive
CCOC(=O)c1c(N)sc2ccccc12 [compound 5142031]	Positive
CCC(=O)c1c(C)nc2n(Cc3ccccc3)c3ccccc3n12 [compound 5649824]	Positive
CCOC(=O)Nc1sc(C)c(CC)c1C(=O)OCC [compound 5695025]	Positive
CCCC(C)C1(CC)C(=O)NC(=S)NC1=O (centres unmarked) [thiopental]	Positive
CC(=O)c1c(C)nc2n(Cc3ccccc3)c3ccccc3n12 [compound 5573728]	Positive
CC(C)CC(=O)NC(S)=NCc1ccccc1 [compound 6993015]	Positive
CCCN(CCC)S(=O)(=O)c1ccc(Cl)c(Cl)c1OC [compound 6474599]	Positive
CCCCNc1c(C(=O)OCC)c(C)nc2c1cnn2CC [tracazolate]	Positive

same assay, conditions: in the presence of GABA

Compound	GABAAR PAM activity in FLIPR, in words
CCCCNc1c(C(=O)OCC)c(C)nc2c1cnn2CC [tracazolate]	increased fluorescence in the presence of GABA

Source: publication PMC6733874, “Zebrafish behavioural profiling identifies GABA and serotonin receptor ligands related to sedation and paradoxical excitation” (Nature Communications, 2019)
